According to patent US6093731A, “Isoquinolines” (priority 1999, dated 2000):
Counter-ions that a name gives are not always drawn.

Each compound was assayed against T1, human urokinase (Homo sapiens, UniProt P00749) (assay: urokinase inhibition assay (S-2444 substrate)). Conditions: not given.
T1 construct: the urokinase used was HMWT Human Urokinase (Calbiochem 672081); purchased Calbiochem 672081
Format: biochemical

Ki, ≤ 20 nM:
NC(N)=Nc1ncc(Cl)c2ccc(S(=O)(=O)NC3(C(=O)N4CCOCC4)CCCC3)cc12 [Example 78, 4-Chloro-1-guanidino-N-[1-(morpholinocarbonyl)cyclopentyl]-7-isoquinolinesulphonamide hydrochloride]
NC(N)=Nc1ncc(Cl)c2ccc(S(=O)(=O)NC3(C(=O)O)CCCCC3)cc12 [43(b), 1-{[(4-Chloro-1-guanidino-7-isoquinolinyl)sulphonyl]amino}cyclohexanecarboxylic acid hydrochloride]
NC(N)=Nc1ncc(Cl)c2ccc(S(=O)(=O)N3CCC[C@@H]3C(=O)O)cc12 [Example 32(b), N-[(4-Chloro-1-guanidino-7-isoquinolinyl)sulphonyl]-D-proline hydrochloride]
CN1CCN(C(=O)C2(NS(=O)(=O)c3ccc4c(Cl)cnc(N=C(N)N)c4c3)CCCC2)CC1 [Example 79, 4-Chloro-1-guanidino-N-{1-[(4-methylpiperazino)carbonyl]cyclopentyl}-7-isoquinolinesulphonamide dihydrochloride]

Same assay, conditions: read-out: Ki values vs. urokinase

Ki, ≤ 20 nM:
NC(N)=Nc1ncc(Cl)c2ccc(S(=O)(=O)NC3(C(=O)NCCO)CCCC3)cc12 [Example 38, 1-{[(4-Chloro-1-guanidino-7-isoquinolinyl)sulphonyl]amino}-N-(2-hydroxyethyl)cyclopentanecarboxamine hydrochloride]
NC(N)=Nc1ncc(Cl)c2ccc(S(=O)(=O)N3CCOC(=O)C34CCCC4)cc12 [Example 87(c), N"-{4-Chloro-7-[(10-oxo-9-oxa-6-azaspiro [4.5]dec-6-yl)sulphonyl]-1-isoquinolinyl}guanidine hydrochloride]
CN(C)CCNC(=O)C1(NS(=O)(=O)c2ccc3c(Cl)cnc(N=C(N)N)c3c2)CCCC1 [Example 39(a), 1-{[(4-Chloro-1-guanidino-7-isoquinolinyl)sulphonyl]amino}-N-[2-(dimethylamino)ethyl]cyclopentanecarboxamine]
CN(C)CCN(C1(C(=O)O)CCCC1)S(=O)(=O)c1ccc2c(Br)cnc(NC(=N)N)c2c1 [84(b), N-({4-Bromo-1-guanidino-7-isoquinolinyl}sulphonyl)-N-[2-(dimethylamino)ethyl]cycloleucine dihydrochloride]
CN(CCO)C(=O)C1(NS(=O)(=O)c2ccc3c(Cl)cnc(NC(=N)N)c3c2)CCCC1 [Example 75, 1-[({4-Chloro-1-guanidino-7-isoquinolinyl}sulphonyl)amino]-N-(2-hydroxyethyl)-N-methylcyclopentanecarboxamide hydrochloride]
N=C(N)Nc1ncc(Cl)c2ccc(S(=O)(=O)N(CCOC3CCCCO3)C3(C(=O)O)CCCC3)cc12 (stereo not drawn) [Example 87(b), 1-{[(4-Chloro-1-guanidino-7-isoquinolinyl)sulphonyl][2-(tetrahydro-2H-pyran-2-yloxy)ethyl]amino}cyclopentanecarboxylic acid]
COCCNC(=O)C1(NS(=O)(=O)c2ccc3c(Cl)cnc(NC(=N)N)c3c2)CCCC1 [Example 76, 1-[({4-Chloro-1-guanidino-7-isoquinolinyl}sulphonyl)amino]-N-(2-methoxyethyl)cyclopentanecarboxamide hydrochloride]
NC(N)=Nc1ncc(Cl)c2ccc(S(=O)(=O)NC3(C(=O)O)CCCC3)cc12 [37(b), N-[(4-Chloro-1-guanidino-7-isoquinolinyl)sulphonyl]cycloleucine]
